Test results as given in patent US20260083851A1 (AVILAR THERAPEUTICS, INC., priority 2022, published 2026).
pEC50, pIC50, pKd: −log10 of the molar value. Like-named read-outs stand apart in the source and are kept apart here.

How the values were obtained:
TNF = TNF (Homo sapiens, UniProt P01375); test: TNF FP Assay; format: binding; conditions: TNF 20 nM, 25° C., 2 hours
Method: TNF (20 nM) and test compound in 47 mM HEPES pH 6.5, 47 mM NaCl, 0.9 mM EDTA, 0.007% Triton X-100 were incubated at 25° C. for 2 hours. Fluorescence data was read with an Envision and plotted versus Compound concentration and fit to a single-site binding model.

[1] = molecular target: T1, ASGP receptor (biotinylated ASGPR) (Homo sapiens, UniProt P07306); format: binding; conditions: SPR; Table 2; read-out: ASGPR SPR Binding KD
T1 construct: biotin (biotinylated)
T1 sequence (P07306 1-291): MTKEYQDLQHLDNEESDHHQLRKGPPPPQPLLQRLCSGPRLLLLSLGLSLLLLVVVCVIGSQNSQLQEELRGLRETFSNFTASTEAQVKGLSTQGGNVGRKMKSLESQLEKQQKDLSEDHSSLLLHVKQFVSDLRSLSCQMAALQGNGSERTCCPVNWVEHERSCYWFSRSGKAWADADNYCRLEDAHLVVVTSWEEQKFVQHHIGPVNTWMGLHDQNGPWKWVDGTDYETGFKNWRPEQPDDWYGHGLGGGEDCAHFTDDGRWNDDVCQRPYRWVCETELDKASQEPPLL

[2] = molecular target: T2, ASGPR receptor on HepG2 cells (ternary complex with AF488-labeled antibody) (Homo sapiens, UniProt P07306); test: Ternary complex formation assay (flow cytometry, cell-associated AF488 fluorescence); format: cell-based; conditions: 100 nM AF488-labeled antibody, 1 hour at 4° C.
T2 construct: host or cells: HepG2
T2 sequence (P07306 1-291): T1 sequence (P07306 1-291)
T2 sequence (P07307 1-311 partner): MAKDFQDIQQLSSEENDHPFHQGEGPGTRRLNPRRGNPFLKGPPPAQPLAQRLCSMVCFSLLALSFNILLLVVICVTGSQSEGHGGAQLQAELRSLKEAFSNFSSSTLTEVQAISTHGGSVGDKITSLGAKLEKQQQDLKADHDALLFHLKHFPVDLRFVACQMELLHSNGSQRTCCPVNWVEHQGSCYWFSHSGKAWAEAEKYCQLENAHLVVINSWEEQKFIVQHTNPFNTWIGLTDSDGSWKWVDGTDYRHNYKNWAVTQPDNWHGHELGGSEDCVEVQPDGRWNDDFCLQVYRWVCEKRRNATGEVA

ASGPR = molecular target: T3, ASGPR (Homo sapiens, UniProt P07306); test: ASGPR SPR binding
T3 construct: biotin (biotinylated)
T3 sequence (P07306 1-291): T1 sequence (P07306 1-291)

IgG = IgG SPR binding
HepG2 cells = test: Cellular uptake assay (high-content imaging); format: cell-based, human; conditions: 100 nM AF488-labeled antibody, 6 hours at 37° C.
From the text: The cellular uptake assay is designed to measure compound-mediated cellular uptake of fluorescently labeled antibody following ternary complex formation with the ASGPR receptor and endocytosis of the entire complex into cells. The optimal concentration of compound will result in the maximum number of cells with intracellular antibody and is represented as the peak ratio of antibody-positive cells over the total number of cells. As with the ternary complex formation assay, too much or too little compound will result in suboptimal complex formation and fewer cells will have measurable intracellular fluorescence.
Human IgG (Sigma-Aldrich, 14506) was covalently labeled with Alexa Fluor 488 using the Alexa Fluor™ 488 Protein Labeling Kit (Thermo Fisher, A10235) following the manufacturer's instructions. HepG2 cells were plated in DMEM supplemented with 10% FBS at 5,000 cells per well in a 96-well microtiter plate and incubated for approximately 18 hours at 37° C./5% CO2. For studies using human IgG, 100 nM AF488-labeled human IgG antibodies and serial dilutions of IgG-based degrader (0.1% DMSO final concentration) were added to the cells and the mixture was incubated at 37° C. for 6 hours. For studies using DNP, 100 nM AF488-labeled DNP antibodies and serial dilutions of DNP-based degrader (0.1% DMSO final concentration) were added to the cells and the mixture was incubated at 37° C. for 6 hours. HepG2 cells were fixed in 100% methanol at −20° C. for 20 min, washed 3× with PBS, then stained with DAPI (Thermo, Cat #H3570). HepG2 cells were imaged for DAPI and Alexa Fluor 488 using the Operetta CLS, high-content analysis system (PerkinElmer). Data is presented as the ratio of the number of cells positive for hIgG or DNP (AF-488 fluorescence) over the total cell number (measured by DAPI).

[3] = Table 3, read-out: ASGPR SPR Binding KD
[4] = Table 3, read-out: IgG SPR Binding KD
[5] = Homo sapiens, Table 3, class symbols, read-out: Uptake Assay (EC50)
[6] = Table 3, numeric bounds, read-out: Ternary Complex EC50
[7] = the 25th table, class symbols, read-out: TCF EC50
[8] = second table, read-out: ASGPR KD
[9] = the 25th table, class symbols, read-out: Uptake EC50

Sequence of TNF (P01375 77-233 limits assumed): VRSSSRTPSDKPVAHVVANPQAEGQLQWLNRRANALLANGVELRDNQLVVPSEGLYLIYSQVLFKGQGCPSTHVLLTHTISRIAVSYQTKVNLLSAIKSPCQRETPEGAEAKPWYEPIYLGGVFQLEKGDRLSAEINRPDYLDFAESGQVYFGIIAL

O=C(CC(=O)NC[C@H]1OC[C@H](Nc2cncc(C(F)(F)F)n2)[C@@H](O)[C@H]1O)NCCOCCOCCOCc1ccc(-c2cccc3ccncc23)c(OCCc2ccc(-c3cccc4ccncc34)cc2)c1 [compound 1]
pIC50 (TNF; Table 2): 6.30 to 7.00 | pKd [1]: > 7.00

O=C(CCOCC(COCCC(=O)NCCOCCOCCOCCOC[C@H]1OC[C@H](Nc2cncc(C(F)(F)F)n2)[C@@H](O)[C@H]1O)NC(=O)COCCOCCOCCOCCOCC(=O)N1CCN(Cc2ccc(-c3c[nH]c4ccncc34)c(OCCc3ccc(-c4cccc5ccncc45)cc3)c2)CC1)NCCOCCOCCOCCOC[C@H]1OC[C@H](Nc2cncc(C(F)(F)F)n2)[C@@H](O)[C@H]1O [compound 5]
pIC50 (TNF; Table 2, numeric bound): < 6.87

O=C(CNC[C@H]1OC[C@H](Nc2cncc(C(F)(F)F)n2)[C@@H](O)[C@H]1O)NCCOCCOCCOCc1ccc(-c2cccc3ccncc23)c(OCCc2ccc(-c3cccc4ccncc34)cc2)c1 [compound 6]
pIC50 (TNF; Table 2): 6.30 to 7.00

CC1(C)C(=O)c2ccc(-c3cnc(N4CCN5C(=O)N(CCOCCNC(=O)c6ccc(C(=O)NC[C@H]7OC[C@H](Nc8cncc(C(F)(F)F)n8)[C@@H](O)[C@H]7O)cc6)C[C@@H]5C4)nc3)nc2N1Cc1cccnc1C#N [compound 18]
pIC50 (TNF; Table 2): < 6.00

CC(C)C[C@@H]1NC(=O)[C@H](Cc2cnc[nH]2)NC(=O)[C@H](Cc2c[nH]c3ccccc23)NC(=O)[C@H](C)NC(=O)[C@@H]2CSSC[C@H](NC(=O)[C@H](Cc3c[nH]c4ccccc34)NC(=O)[C@H](C(C)C)NC(=O)[C@H](CC(C)C)NC(=O)[C@H](CCC(=O)O)NC(=O)CNC1=O)C(=O)N[C@@H]([C@@H](C)O)C(=O)N1CCC[C@@H]1C(=O)N1C[C@@H](NC(=O)COCCOCC(=O)NC[C@H]3OC[C@H](Nc4nc(C(F)(F)F)ccc4F)[C@@H](O)[C@H]3O)C[C@H]1C(=O)N[C@@H](CC(=O)O)C(=O)N2 [compound 33]
pEC50 ([2]; Table 3, class symbols, read-out: Ternary Complex EC50): > 7.00 | pKd (ASGPR; [3]): 6.30 to 7.00 | pKd (IgG; [4]): > 7.00 | pEC50 (HepG2 cells; [5]): > 7.00

CC(C)C[C@@H]1NC(=O)[C@H](Cc2cnc[nH]2)NC(=O)[C@H](Cc2c[nH]c3ccccc23)NC(=O)[C@H](C)NC(=O)[C@@H]2CSSC[C@H](NC(=O)[C@H](Cc3c[nH]c4ccccc34)NC(=O)[C@H](C(C)C)NC(=O)[C@H](CC(C)C)NC(=O)[C@H](CCC(=O)O)NC(=O)CNC1=O)C(=O)N[C@@H]([C@@H](C)O)C(=O)N1CCC[C@@H]1C(=O)N1C[C@@H](NC(=O)COCCOCC(=O)NC[C@H]3OC[C@H](Nc4nccc(C(F)(F)F)n4)[C@@H](O)[C@H]3O)C[C@H]1C(=O)N[C@@H](CC(=O)O)C(=O)N2 [compound 34]
pEC50 [2, 6]: < 6.02 | pKd (ASGPR; [3]): < 6.00 | pKd (IgG; [4]): > 7.00 | pEC50 (HepG2 cells; [5]): < 6.00

CC(C)C[C@@H]1NC(=O)[C@H](Cc2cnc[nH]2)NC(=O)[C@H](Cc2c[nH]c3ccccc23)NC(=O)[C@H](C)NC(=O)[C@@H]2CSSC[C@H](NC(=O)[C@H](Cc3c[nH]c4ccccc34)NC(=O)[C@H](C(C)C)NC(=O)[C@H](CC(C)C)NC(=O)[C@H](CCC(=O)O)NC(=O)CNC1=O)C(=O)N[C@@H]([C@@H](C)O)C(=O)N1CCC[C@@H]1C(=O)N1C[C@H](NC(=O)COCCOCC(=O)NC[C@H]3OC[C@H](Nc4nccc(C(F)(F)F)n4)[C@@H](O)[C@H]3O)C[C@H]1C(=O)N[C@@H](CC(=O)O)C(=O)N2 [compound 35]
pEC50 [2, 6]: < 5.00 | pKd (ASGPR; [3]): < 6.00 | pKd (IgG; [4]): > 7.00 | pEC50 (HepG2 cells; Homo sapiens, Table 3, numeric bounds, read-out: Uptake Assay (EC50)): < 5.00

CC(=O)N[C@H]1[C@H](OCCCCOCCOCCOCCNC(=O)CCOCC(COCCC(=O)NCCOCCOCCOCCO[C@@H]2O[C@H](CO)[C@H](O)[C@H](O)[C@H]2NC(C)=O)NC(=O)CCCCCn2cc(CCCC(=O)NCCOCCOCCOCCOCCC(=O)N[C@H]3C[C@H]4C(=O)N[C@@H](CC(=O)O)C(=O)N[C@H]5CSSC[C@H](NC(=O)[C@H](Cc6c[nH]c7ccccc67)NC(=O)[C@H](C(C)C)NC(=O)[C@H](CC(C)C)NC(=O)[C@H](CCC(=O)O)NC(=O)CNC(=O)[C@H](CC(C)C)NC(=O)[C@H](Cc6cnc[nH]6)NC(=O)[C@H](Cc6c[nH]c7ccccc67)NC(=O)[C@H](C)NC5=O)C(=O)N[C@@H]([C@@H](C)O)C(=O)N5CCC[C@@H]5C(=O)N4C3)nn2)O[C@H](CO)[C@H](O)[C@@H]1O (stereo partly drawn) [compound 86]
pEC50 [2, 7]: < 6.00 | pKd (ASGPR; [8]): < 6.00 | pKd (IgG; second table, read-out: IgG KD): > 7.00 | pEC50 (HepG2 cells; [9]): < 6.00

CC(C)C[C@@H]1NC(=O)[C@H](Cc2cnc[nH]2)NC(=O)[C@H](Cc2c[nH]c3ccccc23)NC(=O)[C@H](C)NC(=O)[C@@H](NC(=O)[C@H](CC(=O)O)NC(=O)CCOCCOCCOCCOCCNC(=O)CCCc2cn(CCCCCC(=O)NC(CCCCC(=O)NCCOCCOCCOCCOC[C@H]3OC[C@H](Nc4nccc(C(F)(F)F)n4)[C@@H](O)[C@H]3O)COCCC(=O)NCCOCCOCCOCCOC[C@H]3OC[C@H](Nc4nccc(C(F)(F)F)n4)[C@@H](O)[C@H]3O)nn2)CSSC[C@@H](C(=O)N[C@H](C(N)=O)[C@@H](C)O)NC(=O)[C@H](Cc2c[nH]c3ccccc23)NC(=O)[C@H](C(C)C)NC(=O)[C@H](CC(C)C)NC(=O)[C@H](CCC(=O)O)NC(=O)CNC1=O (stereo partly drawn) [compound 90]
pEC50 [2, 7]: > 7.00 | pKd (ASGPR; [8]): > 7.00 | pKd (IgG; second table, read-out: IgG KD): > 7.00 | pEC50 (HepG2 cells; [9]): > 7.00

CC(C)C[C@@H]1NC(=O)[C@H](Cc2cnc[nH]2)NC(=O)[C@H](Cc2c[nH]c3ccccc23)NC(=O)[C@H](C)NC(=O)[C@@H](NC(=O)[C@H](CC(=O)O)NC(=O)CCOCCOCCOCCOCCNC(=O)CCCc2cn(CCCCCC(=O)NC(COCCC(=O)NCCOCCOCCOCCO[C@@H]3O[C@H](CO)[C@H](O)[C@H](O)[C@H]3Nc3cncc(C(F)(F)F)n3)COCCC(=O)NCCOCCOCCOCCO[C@@H]3O[C@H](CO)[C@H](O)[C@H](O)[C@H]3Nc3cncc(C(F)(F)F)n3)nn2)CSSC[C@@H](C(=O)N[C@H](C(N)=O)[C@@H](C)O)NC(=O)[C@H](Cc2c[nH]c3ccccc23)NC(=O)[C@H](C(C)C)NC(=O)[C@H](CC(C)C)NC(=O)[C@H](CCC(=O)O)NC(=O)CNC1=O [compound 93]
pEC50 [2, 7]: > 7.00 | pKd (ASGPR; [8]): > 7.00 | pKd (IgG; second table, read-out: IgG KD): > 7.00 | pEC50 (HepG2 cells; [9]): > 7.00

CC(C)C[C@@H]1NC(=O)[C@H](Cc2cnc[nH]2)NC(=O)[C@H](Cc2c[nH]c3ccccc23)NC(=O)[C@H](C)NC(=O)[C@@H]2CSSC[C@H](NC(=O)[C@H](Cc3c[nH]c4ccccc34)NC(=O)[C@H](C(C)C)NC(=O)[C@H](CC(C)C)NC(=O)[C@H](CCC(=O)O)NC(=O)CNC1=O)C(=O)N[C@@H]([C@@H](C)O)C(=O)N1CCC[C@@H]1C(=O)N1C[C@H](NC(=O)CNC(COCCC(=O)NCCOCCOCCOCCOC[C@H]3OC[C@H](Nc4cncc(C(F)(F)F)n4)[C@@H](O)[C@H]3O)COCCC(=O)NCCOCCOCCOCCOC[C@H]3OC[C@H](Nc4cncc(C(F)(F)F)n4)[C@@H](O)[C@H]3O)C[C@H]1C(=O)N[C@@H](CC(=O)O)C(=O)N2 [compound 97]
pEC50 [2, 7]: > 7.00 | pKd (ASGPR; [8]): > 7.00 | pKd (IgG; second table, read-out: IgG KD): > 7.00 | pEC50 (HepG2 cells; Homo sapiens, the 25th table, class symbols, read-out: Uptake EC50): > 7.00
